According to patent publication US8080546B2, “Pyrazolo-pyridinone derivatives and methods of use” (Amgen Inc., priority 2007, dated 2011):
Read-outs that look alike come from different tables or passages of the source.

How the values were obtained:
THP1 cells = assay: Lipopolysaccharide-activated THP1 cell TNF production assay (THP1 cell based); settings: Homo sapiens, THP-1, LPS-induced TNF-α
Method: Lipopolysaccharide-Activated THP1 Cell TNF Production Assay
THP1 cells are resuspended in fresh THP1 media (RPMI 1640, 10% heat-inactivated FBS, 1XPGS, 1XNEAA, plus 30 μM PME) at a concentration of 1E6/mL. One hundred microliters of cells per well are plated in a polystyrene 96-well tissue culture. One microgram per mL of bacterial LPS is prepared in THP1 media and is transferred to the wells. Test compounds are dissolved in 100% DMSO and are serially diluted 3-fold in a polypropylene 96-well microtiter plate (drug plate). HI control and LO control wells contain only DMSO. One microliter of test compound from the drug plate followed by 10 μL of LPS are transferred to the cell plate. The treated cells are induced to synthesize and secrete TNF-α at 37° C. for 3 h. Forty microliters of conditioned media are transferred to a 96-well polypropylene plate containing 110 μL of ECL buffer (50 mM Tris-HCl pH 8.0, 100 mM NaCl, 0.05% Tween 20, 0.05% NaN3 and 1% FBS) supplemented with 0.44 nM MAB610 monoclonal Ab (R&D Systems), 0.34 nM ruthenylated AF210NA polyclonal Ab (R&D Systems) and 44 μg/mL sheep anti-mouse M280 Dynabeads (Dynal). After a 2 h incubation at room temperature with shaking, the reaction is read on the ECL M8 Instrument (IGEN Inc.). A low voltage is applied to the ruthenylated TNF-α immune complexes, which in the presence of TPA (the active component in Origlo), results in a cyclical redox reaction generating light at […]. The amount of secreted TNF-α in the presence of compound compared with that in the presence of DMSO vehicle alone (HI control) is calculated using the formula: % control (POC)=(cpd−average LO)/(average HI−average LO)*100. Data (consisting of POC and inhibitor concentration in μM) is fitted to a 4-parameter equation (y=A+((B−A)/(1+((x/C)^D))), where A is the minimum y (POC) value, B is the maximum y (POC), C is the x (cpd concentration) at the point of inflection and D is the slope factor) using a Levenburg-Marquardt non-linear regression algorithm.

p38 = p38 (Homo sapiens, UniProt Q16539); assay: p38 in-vitro HTRF enzyme assay; type: biochemical; settings: recombinant human enzyme, read-out: p38 enyme HTRF assay IC50
Method: p38 In-Vitro HTRF Enzyme Assay
The compounds of the invention can be tested for their respective affinities for the p38 protein using a conventional p38 in-vitro enzyme activity assay. For example, a P38-alpha HTRF assay may be used to measure the protein's in-vitro phosphorylation activity, and the data analyzed using time resolved fluorimetry techniques (FRET). A p38 HTRF assay is as follows. The kinase reaction buffer for p38α, p38β, p38δ and p38γ HTRF assays consists of 50 mM Tris-pH 7.5, 5 mM MgCl2, 0.1 mg/mL BSA, 100 μM Na3VO4 and 0.5 mM DTT. The HTRF detection buffer contains 100 mM HEPES-pH 7.5, 100 mM NaCl, 0.1% BSA, 0.05% Tween-20, and 10 mM EDTA. Each compound was dissolved in 100% DMSO and serially diluted (3 fold, 10 point) in a polypropylene 96-well microtiter plate (drug plate). The final starting concentration of the compound in the p38α and p38β enzymatic assays was about 1 μM. The final starting concentration of each compound in the p38δ and p38γ enzymatic assays was about 10 μM. The p38α, p38β, p38δ and p38γ kinase reactions were carried out in a polypropylene 96-well black round bottom assay plate in total volume of 30 μL kinase reaction buffer. Appropriate concentration of purified and activated enzyme (recombinant human) was mixed with indicated concentration of ATP and 100 nM GST-ATF2-Avitag, in the presence or absence (HI control) of each compound. In the absence of enzyme, the background was measured as LO control. HI controls and LO controls contained only DMSO. The reaction was allowed to incubate for 1 hour at RT. […] After 60 minutes incubation at room temperature, the assay plate was read in a Discovery Plate Reader. […] The resulting data was analyzed by taking the proportion of substrate phosphorylated in the kinase reaction in the presence of each individual compound and comparing it with that phosphorylated in the presence of DMSO vehicle alone (HI control). The data was calculated using the formula: % control (POC)=(compound−average LO)/(average HI−average LO)*100. […] All results were expressed as the mean±the standard error of the mean. Data acquisition and non-linear regression algorithms were performed using Activity Base v5.2 and XLfit software v4.1 respectively. Additional assay information may be obtained in Park Y W, Cummings R T, Wu L, et al. Homogeneous Proximity Tyrosine Kinase Assays Scintillation Proximity Assay versus Homogeneous Time-Resolved Fluorescence. Analytical Biochemistry.

IL-1 = assay: LPS induced IL-1 cell based assay (LPS-activated monocytes); settings: Homo sapiens, Monocyte
Method: Lipopolysaccharide-Activated Monocyte TNF Production Assay
Test compounds were evaluated in vitro for the ability to inhibit the production of TNF by monocytes activated with bacterial lipopolysaccharide (LPS). Fresh residual source leukocytes (a byproduct of plateletpheresis) were obtained from a local blood bank, and peripheral blood mononuclear cells (PBMCs) were isolated by density gradient centrifugation on Ficol-Paque Plus (Pharmacia). PBMCs were suspended at 2×10^6/mL in DMEM supplemented to contain 2% FCS, 10 mM, 0.3 mg/mL […], 100 U/mL penicillin G and […] streptomycin sulfate (complete media). Cells were plated into Falcon flat bottom, 96 well culture plates (200 μL/well) and cultured overnight at 37° C. and 6% CO2. Non-adherent cells were removed by washing with 200 μl/well of fresh medium. Wells containing adherent cells (˜70% monocytes) were replenished with 100 μL of fresh medium.
Preparation of Test Compound Stock Solutions
Test compounds were dissolved in […]. Compound stock solutions were prepared to an initial concentration of […]. Stocks were diluted initially to 20-200 μM in complete media. Nine two-fold serial dilutions of each compound were then prepared in complete medium.
Treatment of Cells with Test Compounds and Activation of TNF Production with Lipopolysaccharide
One hundred microliters of each test compound dilution were added to microtiter wells containing adherent monocytes and 100 μL complete medium. Monocytes were cultured with test compounds for 60 min at which time 25 μL of complete medium containing 30 ng/mL lipopolysaccharide from E. coli K532 were added to each well. Cells were cultured an additional 4 hrs. Culture supernatants were then removed and TNF presence in the supernatants was quantified using an ELISA. […]
Standard curve data were fit to a second order polynomial and unknown TNF-α concentrations determined from their OD by solving this equation for concentration. TNF concentrations were then plotted vs. test compound concentration using a second order polynomial. This equation was then used to calculate the concentration of test compounds causing a 50% reduction in TNF production.
Compounds of the invention can also be shown to inhibit LPS-induced release of IL-1β, IL-6 and/or IL-8 from monocytes by measuring concentrations of IL-1β, IL-6 and/or IL-8 by methods well known to those skilled in the art. […] Thus, the compounds of the invention may lower elevated levels of TNF-α, IL-1, IL-6, and IL-8 levels. Reducing elevated levels of these inflammatory cytokines to basal levels or below is favorable in controlling, slowing progression, and alleviating many disease states.

Sequence of p38 (Q16539 whole entry): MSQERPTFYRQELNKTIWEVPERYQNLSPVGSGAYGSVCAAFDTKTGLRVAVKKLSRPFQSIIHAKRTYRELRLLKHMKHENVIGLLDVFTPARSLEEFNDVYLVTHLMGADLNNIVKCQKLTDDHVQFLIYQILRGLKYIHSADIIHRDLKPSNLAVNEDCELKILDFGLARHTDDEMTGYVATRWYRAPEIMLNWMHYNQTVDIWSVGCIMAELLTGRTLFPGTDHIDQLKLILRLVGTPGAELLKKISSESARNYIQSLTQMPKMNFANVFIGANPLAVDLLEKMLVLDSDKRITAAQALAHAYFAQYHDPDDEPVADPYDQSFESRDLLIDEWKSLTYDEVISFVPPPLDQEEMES

For Cc1ccc(C(=O)O)cc1Nc1cc(=O)n(C)c2c1cnn2-c1ccc(F)cc1F [Example 17, 3-((1-(2,4-difluorophenyl)-7-methyl-6-oxo-6,7-dihydro-1H-pyrazolo[3,4-b]pyridin-4-yl)amino)-4-methylbenzoic acid], the IC50 (THP1 cells; range symbols) was 1000 to 5000 nM, the IC50 (p38; range symbols) was 1000 to 5000 nM and the IC50 (IL-1; range symbols) was 1000 to 5000 nM.

For Cc1ccc(C(N)=O)cc1Nc1cc(=O)n(C)c2c1cnn2-c1ccc(F)cc1F [Example 18, 3-((1-(2,4-difluorophenyl)-7-methyl-6-oxo-6,7-dihydro-1H-pyrazolo[3,4-b]pyridin-4-yl)amino)-4-methylbenzamide], the IC50 (THP1 cells; range symbols) was less than 25 nM, the IC50 (p38; range symbols) was less than 25 nM and the IC50 (IL-1; range symbols) was less than 25 nM.

Cc1ccc(C(=O)NC2CC2)cc1Oc1cc(=O)n(C)c2c1cnn2-c1ccc(F)cc1F [Example 19, N-cyclopropyl-3-((1-(2,4-difluorophenyl)-7-methyl-6-oxo-6,7-dihydro-1H-pyrazolo[3,4-b]pyridin-4-yl)oxy)-4-methylbenzamide] showed an IC50 (THP1 cells; range symbols) of less than 25 nM, an IC50 (p38; range symbols) of less than 25 nM and an IC50 (IL-1; range symbols) of 25 to 99 nM.

For Cc1ccc(C(=O)NC2CC2)cc1Nc1cc(=O)n(C)c2c1cnn2-c1cc(F)ccc1F [Example 20, N-cyclopropyl-3-((1-(2,5-difluorophenyl)-7-methyl-6-oxo-6,7-dihydro-1H-pyrazolo[3,4-b]pyridin-4-yl)amino)-4-methylbenzamide], the IC50 (THP1 cells; range symbols) was less than 25 nM, the IC50 (p38; range symbols) was less than 25 nM and the IC50 (IL-1; range symbols) was less than 25 nM.

For Cc1ccc(C(N)=O)cc1Nc1cc(=O)n(C)c2c1cnn2-c1cc(F)ccc1F [Example 21, 3-((1-(2,5-difluorophenyl)-7-methyl-6-oxo-6,7-dihydro-1H-pyrazolo[3,4-b]pyridin-4-yl)amino)-4-methylbenzamide], the IC50 (THP1 cells; range symbols) was less than 25 nM, the IC50 (p38; range symbols) was less than 25 nM and the IC50 (IL-1; range symbols) was 25 to 99 nM.

Compound Cc1ccc(C(=O)NC2CC2)cc1Oc1cc(=O)n(C)c2c1cnn2-c1cc(F)ccc1F [Example 22, N-cyclopropyl-3-((1-(2,5-difluorophenyl)-7-methyl-6-oxo-6,7-dihydro-1H-pyrazolo[3,4-b]pyridin-4-yl)oxy)-4-methylbenzamide] has an IC50 (THP1 cells; range symbols) of less than 25 nM, an IC50 (p38; range symbols) of less than 25 nM and an IC50 (IL-1; range symbols) of 100 to 249 nM.

CCn1c(=O)cc(Nc2cc(C(=O)NC3CC3)ccc2C)c2cnn(-c3ccc(F)cc3)c21 [Example 23, N-cyclopropyl-3-((7-ethyl-1-(4-fluorophenyl)-6-oxo-6,7-dihydro-1H-pyrazolo[3,4-b]pyridin-4-yl)amino)-4-methylbenzamide] gave an IC50 (THP1 cells; range symbols) of less than 25 nM, an IC50 (p38; range symbols) of less than 25 nM and an IC50 (IL-1; range symbols) of less than 25 nM.

CCn1c(=O)cc(Oc2cc(C(=O)NC3CC3)ccc2C)c2cnn(-c3ccc(F)cc3)c21 [Example 24, N-cyclopropyl-3-((7-ethyl-1-(4-fluorophenyl)-6-oxo-6,7-dihydro-1H-pyrazolo[3,4-b]pyridin-4-yl)oxy)-4-methylbenzamide] showed an IC50 (THP1 cells; range symbols) of less than 25 nM, an IC50 (p38; range symbols) of less than 25 nM and an IC50 (IL-1; range symbols) of 25 to 99 nM.

With CCn1c(=O)cc(Nc2cc(C(=O)NC3CC3)ccc2Cl)c2cnn(-c3ccc(F)cc3F)c21 [Example 27, 4-chloro-N-cyclopropyl-3-((1-(2,4-difluorophenyl)-7-ethyl-6-oxo-6,7-dihydro-1H-pyrazolo[3,4-b]pyridin-4-yl)amino)benzamide] the IC50 (THP1 cells; actual values) was 0.4 nM, the IC50 (p38; actual values) was 1.2 nM and the IC50 (IL-1; actual values) was 3.3 nM.

In the case of Cn1c(=O)cc(Nc2cc(C(=O)NC3CC3)ccc2Cl)c2cnn(-c3ccc(F)cc3)c21 [Example 28, 4-chloro-N-cyclopropyl-3-((1-(4-fluorophenyl)-7-methyl-6-oxo-6,7-dihydro-1H-pyrazolo[3,4-b]pyridin-4-yl)amino)benzamide], the IC50 (THP1 cells; actual values) is reported as 0.8 nM, the IC50 (p38; actual values) is reported as 2.1 nM and the IC50 (IL-1; actual values) is reported as 4.2 nM.

Work on CCn1c(=O)cc(Nc2cc(C(=O)NC3CC3)ccc2Cl)c2cnn(-c3ccc(F)cc3)c21 [Example 29, 4-chloro-N-cyclopropyl-3-((7-ethyl-1-(4-fluorophenyl)-6-oxo-6,7-dihydro-1H-pyrazolo[3,4-b]pyridin-4-yl)amino)benzamide] yielded an IC50 (THP1 cells; actual values) of 1.4 nM, an IC50 (p38; actual values) of 1.7 nM and an IC50 (IL-1; actual values) of 3.6 nM.

For CONC(=O)c1ccc(C)c(Nc2cc(=O)n(C)c3c2cnn3-c2ccc(F)cc2F)c1 [Example 30, 3-((1-(2,4-difluorophenyl)-7-methyl-6-oxo-6,7-dihydro-1H-pyrazolo[3,4-b]pyridin-4-yl)amino)-N-methoxy-4-methylbenzamide], the IC50 (THP1 cells; actual values) was 0.6 nM, the IC50 (p38; actual values) was 1.6 nM and the IC50 (IL-1; actual values) was 3.8 nM.
